Legend:
[1] = system: ovariectomized female Wistar rats; experiment: Object recognition task in ovariectomized rats (in vivo model for dementia due to menopause); design: species or system rat; settings: SUVN-502 1, 3 and 10 mg/kg, p.o. one hour prior to evaluation, FIGS. 1 and 2
Experimental: Object Recognition Task (In Vivo Model for Dementia Due to Menopause) Bilateral ovariectomy surgery was carried out in 7-8 weeks old female rats. Briefly, animals were anesthetized using Avertin (2,2,2-tri bromo ethanol) at 150 mg/kg, i.p. and were lay down on the surgery table. A midline incision was given on the dorsal region below the rib cage and 1 cm lateral to the either side of midline, a small incision was given on fascia to locate the adipose fat supporting the ovaries. By slowly pulling out the fat tissue, the ovary is identified and excised following the uterine horn ligation with silk sutures. Fascia was also covered with sutures and the similar procedure was repeated on the other side. Superficial skin layers were sutured and gentamicin (15 mg/kg, s.c.) was given as antibiotic and meloxicam (1 mg/kg, i.m.) as analgesic with povidone iodine applied on superficial skin layers at last. Episodic memory which is a memory of autobiographical events contextual in relation to time, place etc. was assessed 4 weeks after the surgery using object recognition task. Object recognition task was carried out using black circular arenas (50 cm height×50 cm diameter) made of PVC laminates. […] Discriminative index was calculated as ratio of time spent exploring the novel object divided by sum of time spent exploring the novel object and familiar object in choice trial.

[2] = system: Aged rats; experiment: Morris water maze task in aged rats (in vivo model for senile dementia); design: species or system rat; settings: 10 mg/kg, p.o.
Experimental: Morris Water Maze Task (In Vivo Model for Senile Dementia): The water maze apparatus consisted of a circular pool (1.8 m diameter, 0.6 m high) constructed in black perspex (TSE, systems, Germany) filled with water (24° C.). The maze was positioned underneath a wide-angled video camera. A 16 cm diameter perspex platform, lying 1 cm below the water surface, was placed in the center of one of the four imaginary quadrants, which remained constant for all rats. The maze offered no intra-maze cues to guide the escape behavior, however, the training room offered several strong extra maze visual cues to aid escape learning. An automated tracking system (Videomot 2 (5.51), TSE systems, Germany) was employed to track animal and record the parameters. […] Aged rats (˜80 weeks old) were placed facing the wall of the maze and lowered gently, feet first into water. Rats were allowed to swim for 60 seconds to find the platform. If the platform was found during this time, the trial was stopped and rat was allowed to stay on platform for 10 seconds before being removed from the maze. If the platform was not found during the 60 seconds trial, rat was guided to the platform and allowed to stay on platform for 10 seconds before being removed from the maze. The rats were taken off the platform ensuring that the rat see the investigator's hand from the front before removal. They were dried gently with a towel. Each rat received 4 trials in a day. The maze has 8 starting points. On the first, third and fifth day the animals started from 1st, 3rd, 5th and 7th starting point and on the second and fourth day the animals started from 2nd, 4th, 6th and […]. […] Retention of the task was assessed on 10th day, during which each animal received a single 30 seconds probe trial. […] Latency to reach the platform (s), swim speed (cm/s) and path length (cm) were recorded during acquisition trials. Percentage time spent in target quadrant (quadrant in which platform was placed during acquisition training) and swim speed (cm/s) were recorded for the probe trial.

[3] = system: CD1 mice; experiment: Resident intruder task (in vivo model for aggression due to dementia); design: species or system mouse; settings: 1, 3 and 10 mg/kg, p.o., 60 minutes prior to the trial, FIG. 4
Experimental: Resident Intruder Task (In Vivo Model for Aggression Due to Dementia): Male CD1 mice of weight 20-35 g (Resident), 15-25 g (Intruder) and ovariectomized female mice (20-25 g) were used. Resident mice were habituated individually with ovariectomized female mice in each cage. β-estradiol at a dose of 0.2 mg/kg, s.c. was administered to female mice during habituation. Intruders were habituated socially for 1 week. On day 1 and day 2, intruder was exposed to resident mice in resident's home cage for a period of 10 minutes and duration of attack was recorded. During this exposure period, female mice were removed from the cage. On day 4, animals were randomized based on their duration of attack and respective treatments were administered. […] After post dose interval, resident mice were exposed to same intruder for 10 min and duration of attack was recorded.

[4] = system: BCCL rats; experiment: Contextual fear conditioning in bilateral common carotid artery ligated rats (in vivo model for vascular dementia); design: species or system rat; settings: 3 and 10 mg/kg, p.o., 60 min post dose, FIG. 5
Source text: Contextual Fear Conditioning (In Vivo Model for Vascular Dementia): Male Wistar rats of age 2-3 months were used. Rats were induced vascular dementia by surgical procedure, which involves bilateral common carotid artery ligation (BCCL). Briefly, rats were anaesthetized using 2-5% isoflurane gaseous anesthesia. A dorsal incision was made near the neck region and two bilateral common carotid arteries were exposed. Both the arteries were separated from their sheaths and vagal nerves, and permanently ligated using 4-0 silk sutures. Sham animals were subjected to surgery except for ligation. After an induction period of 14 days, rats were examined in fear conditioning task. On day 1, rats were placed in the behavioral chamber and allowed to acclimatize for 1 min. Post acclimatization rats received a conditioned stimulus (CS) (tone for 10 sec) followed by an unavoidable foot shock (unconditioned stimulus (US): electric shock of 0.4 mA for 1 sec). Following a 40 sec interval between each administration, tone and shock were repeated to deliver a total of six CS-US pairings. […] After post dose interval of 60 min, animals were scored for the duration of freezing without shock stimulus. Shocking and scoring was controlled by Freeze frame software.

[5] = system: Male Wistar rats; experiment: Object recognition task in doxorubicin-treated rats (in vivo model for chemotherapy-induced cognitive impairment); design: species or system rat; settings: DOX 2.5 mg/kg, i.p. treated male Wistar rats; SUVN-502 1 and 10 mg/kg, p.o.; FIG. 6
Experimental: Male Wistar rats (230-280 g) were used as experimental animals. Four animals were housed in each cage. Rats were acclimatized for 7 days (Days 1-7) to the laboratory conditions. Chemotherapy-induced cognitive impairment was induced by injecting doxorubicin (DOX) at 2.5 mg/kg, i.p. once in every 5 days up to 8 cycles (days 8-49). […] On experimental day 50, following 60 min of formulation dosing, animals were habituated to the arenas for 45 min. On day 51, animals were treated with their respective formulations 60 min prior to the familiarization trial (T1) during which rats was presented with two similar objects i.e., silver Milton flasks (a1 and a2) for 3 min. After an interval of 30 min, rats were subjected to choice trial (T2), with one familiar (silver, a3) and one novel (red, b) object for a period of 3 min. During the T1 and T2 trials, exploration time of each object (defined as sniffing, licking, chewing or having moving vibrissae whilst directing the nose towards the object at a distance of less than 1 cm) were recorded separately by hand held stop watch. • Reference: Behavioural Brain Research, 1988, 31, 47-59.

Compound | effect on object memory deficits [1] | path length versus vehicle treated group ([2]; aged rats (~80 weeks old), acquisition days 3, 4 and 5, p<0.05, p<0.01) | target latency versus vehicle treated group ([2]; aged rats, days 3, 4 and 5, statistically significant (p<0.05, p<0.01) only on day 3 and 5) | time in the target quadrant during the probe trial versus vehicle ([2]; aged rats, probe trial on 10th day, p<0.05) | aggression levels (duration of attack) [3] | memory (duration of freezing) [4] | novel object recognition (exploration time, novel versus familiar object) [5]
COc1ccc2c(c1)c(CN1CCN(C)CC1)cn2S(=O)(=O)c1ccccc1Br [SUVN-502, 1-[(2-Bromophenyl)sulfonyl]-5-methoxy-3-[(4-methyl-1-piperazinyl)methyl]-1H-indole dimesylate monohydrate] | reversed the object memory deficits | significantly lesser | also lesser | more time in the target quadrant | decreased the aggression levels | improved the memory | increased novel object recognition
COc1cc2c(cc1OC)C(=O)C(CC1CCN(Cc3ccccc3)CC1)C2 (centres unmarked) [donepezil, reference compound] | did not reverse the object memory deficits |  |  |  |  |  | 

Reference: patent US20210338661A1, “NEW USES OF A PURE 5-HT 6 RECEPTOR ANTAGONIST” (SUVEN LIFE SCIENCES LIMITED, priority 2017, published 2021)
